In general, IC50 refers to the concentration that inhibits the measured activity by half. A high value points to a need for much substance. In general, T/C refers to the result in the treated group divided by that in the control group, in per cent.

These results are taken from ChEMBL document CHEMBL1150731, “Constituents of Tritonia crocosmaeflora, II. Tricrozarin B, an antitumor naphthazarin derivative” (J Nat Prod, 1987).

Experiment [1] in a line: Cytotoxicity against human HeLaS3 cells. The class given is functional, cell-based. Particulars: HeLa S3.
Another experiment has as its system CCRF S-180. The experiment can be described thus: Antitumor activity against mouse S180 cells xenografted ICR mouse at 50 mg/kg, ip relative to control. The class given is functional. The following applies: route intraperitoneal.

Converted amounts (≈) assume the structure as drawn.

`COC1=C(OC)C(=O)c2c(O)c(OC)cc(O)c2C1=O` [TRICROZARIN B] displayed an IC50 in experiment [1] of 7 ng/mL (≈ 0.025 µM). The compound further gave a T/C in the experiment on CCRF S-180 of 146%.
